PMC5760719, “Biotransformation of polyunsaturated fatty acids to bioactive hepoxilins and trioxilins by microbial enzymes” (Nature Communications, 2018)

Key:
Experiment in all cases: product formation by HPLC
Format in all cases: biochemical
[1] = target: T1, 12-LOX (ARA 12-lipoxygenase, MXAN_1745) (Myxococcus xanthus, UniProt Q1DBH8); settings: pathway reaction with purified enzyme; dioxygenation to 12-HpEPE
T1 sequence (Q1DBH8 1-715): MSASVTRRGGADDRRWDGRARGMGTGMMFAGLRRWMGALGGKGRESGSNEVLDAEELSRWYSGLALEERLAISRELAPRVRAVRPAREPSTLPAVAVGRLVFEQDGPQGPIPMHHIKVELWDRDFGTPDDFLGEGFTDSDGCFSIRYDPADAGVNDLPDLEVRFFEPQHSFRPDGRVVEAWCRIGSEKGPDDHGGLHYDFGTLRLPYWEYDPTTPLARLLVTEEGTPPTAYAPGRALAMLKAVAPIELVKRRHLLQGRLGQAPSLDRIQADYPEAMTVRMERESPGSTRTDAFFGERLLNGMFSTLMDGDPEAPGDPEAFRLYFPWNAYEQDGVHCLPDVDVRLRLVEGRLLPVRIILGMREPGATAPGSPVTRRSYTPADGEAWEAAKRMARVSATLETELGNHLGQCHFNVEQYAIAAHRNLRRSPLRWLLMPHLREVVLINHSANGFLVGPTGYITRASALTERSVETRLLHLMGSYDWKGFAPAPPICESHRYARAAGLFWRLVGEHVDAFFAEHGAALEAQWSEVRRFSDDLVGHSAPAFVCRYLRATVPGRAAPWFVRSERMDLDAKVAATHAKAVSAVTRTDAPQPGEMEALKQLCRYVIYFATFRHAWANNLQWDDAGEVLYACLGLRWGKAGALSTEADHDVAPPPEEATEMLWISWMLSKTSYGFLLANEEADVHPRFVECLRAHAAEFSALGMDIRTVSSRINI

[2] = target: T2, 11-LOX (ARA 11-lipoxygenase, MXAN_1744) (Myxococcus xanthus, UniProt Q1DBH9); settings: pathway reaction with purified enzyme; dioxygenation to 11-HpEPE
T2 sequence (Q1DBH9 1-675): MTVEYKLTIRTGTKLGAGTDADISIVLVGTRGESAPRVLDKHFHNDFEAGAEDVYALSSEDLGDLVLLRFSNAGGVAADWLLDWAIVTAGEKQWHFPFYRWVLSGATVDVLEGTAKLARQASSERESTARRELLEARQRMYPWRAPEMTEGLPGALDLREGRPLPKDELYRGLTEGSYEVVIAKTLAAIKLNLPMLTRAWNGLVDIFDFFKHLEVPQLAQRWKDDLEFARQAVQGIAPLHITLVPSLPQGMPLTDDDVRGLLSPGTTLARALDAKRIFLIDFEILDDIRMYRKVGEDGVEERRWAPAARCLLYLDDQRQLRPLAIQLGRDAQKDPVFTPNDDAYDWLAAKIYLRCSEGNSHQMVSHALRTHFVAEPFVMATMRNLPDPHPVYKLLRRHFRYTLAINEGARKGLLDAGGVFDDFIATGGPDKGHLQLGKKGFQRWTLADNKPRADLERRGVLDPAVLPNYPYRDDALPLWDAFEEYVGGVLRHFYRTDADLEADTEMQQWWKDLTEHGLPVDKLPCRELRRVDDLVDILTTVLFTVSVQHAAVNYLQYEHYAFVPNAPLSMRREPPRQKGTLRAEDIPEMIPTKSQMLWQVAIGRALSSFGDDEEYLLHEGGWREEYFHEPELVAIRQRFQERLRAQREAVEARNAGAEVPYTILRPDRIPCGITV

[3] = target: T3, EH (epoxide hydrolase, MXAN_1644) (Myxococcus xanthus, UniProt Q1DBS7); settings: pathway reaction with purified enzymes; HXD3 formed by 11-LOX, hydrolysis to TrXD3
T3 sequence (Q1DBS7 1-318): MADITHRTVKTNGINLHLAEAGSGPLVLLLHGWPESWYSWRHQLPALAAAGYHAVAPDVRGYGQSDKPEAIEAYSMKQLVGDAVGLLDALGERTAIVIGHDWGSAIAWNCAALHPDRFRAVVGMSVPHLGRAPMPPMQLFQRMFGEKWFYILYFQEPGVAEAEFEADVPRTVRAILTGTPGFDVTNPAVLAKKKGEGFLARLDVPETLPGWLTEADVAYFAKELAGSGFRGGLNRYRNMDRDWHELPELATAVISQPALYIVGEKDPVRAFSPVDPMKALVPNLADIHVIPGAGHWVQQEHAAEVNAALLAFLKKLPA

| SMILES | product formation by HPLC [1] | product formation by HPLC [2] | product formation by HPLC [3] |
| --- | --- | --- | --- |
| CC/C=C\C/C=C\C/C=C\C/C=C\C/C=C\CCCC(=O)O [EPA, eicosapentaenoic acid] | 12-LOX and 11-LOX converted EPA to 12-hydroperoxypentaenoic acid (HpEPE) and 11-HpEPE, respectively | 12-LOX and 11-LOX converted EPA to 12-hydroperoxypentaenoic acid (HpEPE) and 11-HpEPE, respectively |  |
| CCCCC/C=C\C(O)C1OC1C/C=C\C/C=C\CCCC(=O)O (stereo not drawn) [HXD3] |  |  | HXB3 and HxD3, respectively, which were then converted to TrXB3 and TrXD3, respectively, by EH |
